In data set [1] the test system is IgM cross-linked splenic B cells. Description: ex vivo B cell migration assay towards medium from CSE treated airways. As to conditions: 10% CSE. The class given is cell-based, mouse. The method, then: (§1) Middle and distal airways from C57BL/6J and Ch25h^−/− mice were isolated and incubated ex vivo as described by Yildirim et al. (Eur Respir J 32, 694-704 (2008)). Briefly, after sacrifice by a ketamine-xylazine over dose, the trachea was cannulated, the lungs removed from the thorax and infused with 1% low-melting agarose dissolved in 1:1 Ham's F12 nutrient medium (Sigma-Aldrich) and distilled water (Gibco, Life Technologies). Airways were dissected under a microscope (Zeiss) from the left lung after the agarose had solidified on ice for 30 min. The isolated airways were washed and cultured in airway epithelial cell medium (PromoCell) at 37° C., 5% CO2.
B cells were purified from the spleens of C57BL/6J mice by negative selection (B cell Isolation Kit, mouse, Miltenyi Biotec). For the migration assay, primary mouse airways were isolated 1 day prior, treated with 10% cigarette smoke extract (CSE) in airway epithelial cell culture medium or culture medium alone for 24 h and at the same time to inhibit Cyp7b1, clotrimazole was also diluted with culture medium to a final concentration of 1 μM for 1 h prior to the migration assay. […] The supernatants were transferred as conditioned medium to the lower well of 24-well transwell plates (Permeable Polycarbonate Membrane Inserts, Corning, Fisher Scientific), for inducing B cell migration, while the airway samples were snap frozen in liquid nitrogen for RNA isolation. Freshly isolated B cells at 2.5×10^6/ml in 100 μl were activated by unconjugated AffiniPure F(ab′)2 Fragment Goat anti-mouse IgM, μchain specific antibody (1.3 μg/ml, 115-006-020, Jackson Immunoresearch Laboratories) for 1 hr at 37° C. in 5.0 μm pore sized transwell inserts (Permeable Polycarbonate Membrane Inserts, Corning, Fisher Scientific). Transwell inserts were then placed into the wells of conditioned medium and incubated for 3 hr at 37° C. Migrated B cells were collected and counted by Neubauer Chamber and reported as percentage of input.

For data set [2], the system named is Tnf expression. In words: gene expression after 10% CSE + LPS stimulation: Tnf. Conditions: 10% CSE + 10 μg/mL LPS. Format: cell-based, mouse. The method, then: (§2) The cells were incubated for 24h at 37° C., 5% CO2, in a 24 well-plate with or without 10% cigarette smoke extract (CSE, 10%)+lipopolysaccharide (LPS, 10 μg/mL), supplemented or not with the 18 CYP7B1 inhibitors (0.3 and 1 μM). B cells were purified from the spleens of C57BL/6J mice by negative selection (B cell Isolation Kit, mouse, Miltenyi Biotec). Freshly isolated B cells at 2.0×10^6/mL in 100 μL were activated by unconjugated AffiniPure F(ab′)2 Fragment Goat anti-mouse IgM, μchain specific antibody (10 μg/mL, 115-006-020, Jackson Immunoresearch Laboratories) for 1 hr at 37° C. in 5.0 μm pore sized transwell inserts (Permeable Polycarbonate Membrane Inserts, Corning, Fisher Scientific). Migrated B cells were collected, and counted by fluorescence-activated cell sorting (FACS) (Trucount tubes, BD Biosciences).
(§3) 10 ng RNA was reverse transcribed using Random Hexamers and MuLV Reverse Transcriptase (Applied Biosystems). Gene expression was analyzed using SensiFAST SYBR Hi-ROX Kit (Bioline) on a StepOnePlus 96 well Real-Time PCR System (Applied Biosystems). […] Expression of each gene was calculated relative to the housekeeping gene 18S as 2^−ΔCt.

Data set [3] relates to Cyp7b1 expression. In words: gene expression after 10% CSE + LPS stimulation: Cyp7b1. As to conditions: 10% CSE + 10 μg/mL LPS. The class given is cell-based, mouse. The method, then: as §2, §3
For data set [4], the system named is Ch25h expression. In words: gene expression after 10% CSE + LPS stimulation: Ch25h. Format: cell-based, mouse. Conditions: 10% CSE + 10 μg/mL LPS. The protocol:
as §2, §3

The test system of data set [5] is C57BL/6 mice exposed to cigarette smoke. In words: CS induced COPD model, clotrimazole therapeutic dosing. Format: in vivo, mouse. The method, then:
Experimental design: In the early treatment group C57BL/6 mice were exposed to filtered air (FA) or cigarette smoke (CS) for 4 months and treated with clotrimazole (i.p. 80 mg/Kg 3 times per week) from months 2 to 4 or oil controls. In the late treatment group C57BL/6 mice were exposed to FA or CS for 6 months and treated with clotrimazole from months 4 to 6 or oil controls.
8-12 week old mice were used in all experiments. For the CS induced COPD model, mice were exposed to 100% mainstream CS (John et al., Clinical science 126, 207-221 (2014)) at a particle concentration of 500 mg/m^3, generated from 3R4F research cigarettes (Filter removed, Tobacco Research Institute, University of Kentucky), for 50 min twice/day, 5 days/week for 4 or 6 months. Mice exposed to filtered air were used as controls. For the elastase induced iBALT-independent COPD model, mice were instilled oropharyngeally with a single application of 80 U/Kg body weight Porcine Pancreatic Elastase (PPE) (Sigma Aldrich) in 80 μl PBS. Mice treated with 80 μl PBS were included as controls. For Cyp7b1 inhibition, clotrimazole (Sigma Aldrich) 10 mM in DMSO, was further diluted in Corn oil (Mazola, Unilever) and applied i.p. at a dose of 80 mg/Kg body weight 3 times/week for two months. Mice were treated after two or four months of CS exposure and smoked for a further two months in parallel with the clotrimazole treatment.
After lung function analysis lungs were lavaged with 3×500 ul aliquots of sterile PBS (Gibco, Life Technologies) supplemented with Complete Protease Inhibitor Cocktail tablets (Roche Diagnostics). Cells were pelleted at 400 g for 20 min and resuspended in 500 μl RPMI-1640 medium (Gibco, Life Technologies) for the total cell count using a Neubauer Chamber. Cytospins of the cell suspension were then prepared and stained using May-Grünwald-Giemsa for differential cell counting (200 cells/sample) using morphological criteria. BAL fluid was retained for mass spectrometry analysis.
H&E stained tissue sections were analyzed by design-based stereology using an Olympus BX51 light microscope equipped with the new Computer Assisted Stereological Toolbox (newCAST, Visiopharm) as described (John-Schuster et al., American journal of physiology. Lung cellular and molecular physiology 307, L692-706 (2014)), by readers blinded to the study groups. Briefly, for mean chord length (MCL) measurements, 20 frames were selected randomly across multiple sections by the software, using the ×20 objective, and superimposed by a line grid and points. The intercepts of lines on alveolar wall (Lsepta) and points localized on air space (Pair) were counted and calculated as MCL=ΣPair××L(p)/ΣLsepta×0.5, where L(p) is the line length per point. The volume of inflammation (V) was quantified in 50 frames, using the ×40 objective, by counting points hitting inflammatory cell zones (Pinflam). For calculation, the Pinflam were referenced to intercepts of lines with both airways and vessels (Iairway/vessel): V=ΣPinflam×L(p)/ΣIairway/vessel. Further, airway, vessel or septum associated inflammation quantification was classified by the location of the inflammation, and was calculated referring to intercept of lines with airway, vessel, or both, respectively.

The subject of data set [6] is Cyp7b1 mRNA. Description: quantitative real time RT-PCR of CSE treated airways: Cyp7b1. The class given is cell-based, mouse. As to conditions: CSE treated airways dissected from C57BL/6 mice, 1 μM clotrimazole. The protocol: (§4) 1 ug RNA was reverse transcribed using Random Hexamers and MuLV Reverse Transcriptase (Applied Biosystems). Gene expression was analyzed using SensiFAST SYBR Hi-ROX Kit (Bioline) on a StepOnePlus 96 well Real-Time PCR System (Applied Biosystems). Primer sequences can be found in Table 1. Expression of each gene was calculated relative to the housekeeping gene HPRT1 or Hprt1 as 2^−[…]Ct.
as §1
(§5) B cells were purified from the spleens of C57BL/6J mice by negative selection (B cell Isolation Kit, mouse, Miltenyi Biotec). […] Migrated B cells were collected and counted by Neubauer Chamber and reported as percentage of input.

Data set [7] deals with Ch25h mRNA. Description: quantitative real time RT-PCR of CSE treated airways: Ch25h. Format: cell-based, mouse. As to conditions: CSE treated airways dissected from C57BL/6 mice, 1 μM clotrimazole. The method, then:
as §4, §1, §5

[8] abbreviates: early and late treatment groups, i.p. 80 mg/Kg 3 times per week.
The mark [9] stands for this setting: early treatment: CS 4 months, i.p. 80 mg/Kg 3 times per week from months 2 to 4.
Where [10] appears, read: late treatment: CS 6 months, i.p. 80 mg/Kg 3 times per week from months 4 to 6.

“Also recorded” adds a separate entry of the source.

`Clc1ccc(COC(Cn2ccnc2)c2ccc(Cl)cc2Cl)c(Cl)c1` (racemic) [Miconazole, (RS)-1-(2-(2,4-Dichlorobenzyloxy)-2-(2,4-dichlorophenyl)ethyl)-1H-imidazole]: the “migration of activated B cells towards culture supernatant from CSE-treated airways” value (from here on “migration”) in data set [1] (compound 1 μM) was “impaired B cell migration”.
In the case of `CC(C)(C(=O)c1cccnc1)c1cccnc1` [Metyrapone, 2-methyl-1,2-di(pyridin-3-yl)propan-1-one], the “migration” value in data set [1] (compound 1 μM) is “impaired B cell migration”.
Consider `CC(C)c1nc(CN(C)C(=O)N[C@H](C(=O)N[C@@H](Cc2ccccc2)C[C@H](O)[C@H](Cc2ccccc2)NC(=O)OCc2cncs2)C(C)C)cs1` [Ritonavir, 1,3-thiazol-5-ylmethyl N-[(2S,3S,5S)-3-hydroxy-5-[(2S)-3-methyl-2-{[methyl({[2-(propan-2-yl)-1,3-thiazol-4-yl]methyl})carbamoyl]amino}butanamido]-1,6-diphenylhexan-2-yl]carbamate], for which the “migration” value in data set [1] (compound 0.1 μM) and in data set [1] (compound 1 μM) was “impaired B cell migration” in each case.
Turning to `Clc1ccccc1C(c1ccccc1)(c1ccccc1)n1ccnc1` [clotrimazole, 1-[(2-Chlorophenyl)(diphenyl)methyl]-1H-imidazole], the “induction of Tnf (TNFα) expression” value in data set [2] is on record as “inhibited”. In addition, the “induction of Tnf (TNFα) expression” value in data set [2] (listed as Clotrimazole) is “inhibits the gene expression”. In addition, in data set [3], the “induction of Cyp7b1 expression” value is on record as “inhibited”. Moreover, in data set [3] (listed as Clotrimazole), the “induction of Cyp7b1 expression” value is “inhibits the gene expression”. Further, the “migration” value in data set [1] (compound 1 μM) is “significantly impaired the ability of activated B cells to migrate; also recorded: impairs B cell migration”. In addition, in data set [4], the “induction of Ch25h expression” value was “inhibited”. Further, the “induction of Ch25h expression” value in data set [4] (listed as Clotrimazole) was “inhibits the gene expression”. In addition, in data set [5] (setting [8]), the “cigarette smoke-induced COPD” value is “protects against and reverses cigarette smoke-induced COPD”; the “lung inflammatory responses following exposure to chronic cigarette smoke” value is reported as “does not attenuate lung inflammatory responses”. Also, in data set [5] (setting [9]), the “emphysema development (mean chord length)” value was “lack of emphysema development”; the iBALT formation entry is given as “significantly reduced iBALT formation”; the lung volume result was “no deterioration in lung volume”; the “lymphocyte cell numbers in BAL fluid” value is “reduced macrophage and lymphocyte cell numbers”. In data set [5] (setting [9]), the “macrophage cell numbers in BAL fluid” value was “reduced macrophage and lymphocyte cell numbers”. Further, in data set [5] (setting [10]), the “emphysema (mean chord length)” value is “attenuated”, the iBALT result is on record as “attenuated”, the lung volume entry is recorded as “reduced lung volume” and the “macrophage cell numbers in BAL fluid” value is on record as “reduced macrophage cell numbers”. The “Cyp7b1 mRNA abundance” value in data set [6] is listed as “sufficient to reduce Cyp7b1 mRNA expression”. In addition, the “Ch25h mRNA abundance” value in data set [7] is given as “did not affect Ch25h levels”.

The values above are taken from patent publication US11185548B2, “Inhibitors of cytochrome P450 family 7 subfamily B member 1 (CYP7B1) for use in treating diseases” (HELMHOLTZ ZENTRUM MÜNCHEN—DEUTSCHES FORSCHUNGSZENTRUM FÜR …, priority 2016, dated 2021).
